Experimental data as given in US20230265151A1, “GIP/GLP1 CO-AGONIST COMPOUNDS” (priority 2020, published 2023).
*1 amine or outer side, *2 acyl side, *3 side chain or, on linkers, in order; H or OH if unused. Where a SMILES comes first, the peptide text is derived from it. Side-chain parts run from the residue outwards. [ ]: non-standard residue; d: D form. The star is where a group is joined. αMePhe(2-F) = C[C@](N)(Cc1ccccc1F)C(=O)O; γGlu = O=C(O)[C@H](CCC(=O)[*:2])N[*:1]; C14 diacid = O=C(O)CCCCCCCCCCCCC(=O)*; αMeY = C[C@](N)(Cc1ccc(O)cc1)C(=O)O; αMeL = CC(C)C[C@](C)(N)C(=O)O; Orn = NCCC[C@H](N)C(=O)O; AEEA = NCCOCCOCC(=O)O; Aib = CC(C)(N)C(=O)O

Legend:
Format in all cases: cell-based
hGIPR = molecular target: T1, hGIPR (Homo sapiens, UniProt P48546); test: Functional cAMP formation (HTRF) in HEK-293 clonal cells expressing hGIPR, 0.1% bovine casein, without or with 1.0% human serum albumin; conditions: 37° C.; for EC50: cAMP, 0.1% bovine casein (no human serum albumin), geometric mean, read-out: hGIPR EC50, nM (SEM, n)
T1 construct: expressed in transfected cells
T1 sequence (P48546 22-466): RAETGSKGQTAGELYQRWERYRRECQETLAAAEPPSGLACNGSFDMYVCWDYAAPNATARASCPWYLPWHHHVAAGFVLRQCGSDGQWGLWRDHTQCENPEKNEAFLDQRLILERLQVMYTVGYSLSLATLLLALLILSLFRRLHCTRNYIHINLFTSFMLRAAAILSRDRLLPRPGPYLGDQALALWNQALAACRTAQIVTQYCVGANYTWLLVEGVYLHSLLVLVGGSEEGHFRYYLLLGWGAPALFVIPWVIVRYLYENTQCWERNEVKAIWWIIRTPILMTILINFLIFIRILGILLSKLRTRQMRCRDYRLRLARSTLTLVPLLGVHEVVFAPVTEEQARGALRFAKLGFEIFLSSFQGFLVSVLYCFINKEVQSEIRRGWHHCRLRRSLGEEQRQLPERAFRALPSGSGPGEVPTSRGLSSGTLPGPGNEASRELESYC
Procedure, shortened: (§1)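 Cells were stimulated with peptide for 30 min at 37° C, then lysed in buffer carrying cAMP-d2 and anti-cAMP Eu3+-cryptate for a competitive HTRF read after at least 60 min at room temperature. The 665/620 nm ratio was converted to nM cAMP against a standard curve.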

hGCGR = molecular target: T2, hGCGR (Homo sapiens, UniProt P47871); test: Functional cAMP formation (HTRF) in HEK-293 clonal cells expressing hGCGR, 0.1% bovine casein, without or with 1.0% human serum albumin; conditions: cAMP, 37° C., 0.1% bovine casein (no human serum albumin); geometric mean; read-out: hGCGR EC50, nM (SEM, n)
T2 construct: expressed in transfected cells
T2 sequence (P47871 26-477): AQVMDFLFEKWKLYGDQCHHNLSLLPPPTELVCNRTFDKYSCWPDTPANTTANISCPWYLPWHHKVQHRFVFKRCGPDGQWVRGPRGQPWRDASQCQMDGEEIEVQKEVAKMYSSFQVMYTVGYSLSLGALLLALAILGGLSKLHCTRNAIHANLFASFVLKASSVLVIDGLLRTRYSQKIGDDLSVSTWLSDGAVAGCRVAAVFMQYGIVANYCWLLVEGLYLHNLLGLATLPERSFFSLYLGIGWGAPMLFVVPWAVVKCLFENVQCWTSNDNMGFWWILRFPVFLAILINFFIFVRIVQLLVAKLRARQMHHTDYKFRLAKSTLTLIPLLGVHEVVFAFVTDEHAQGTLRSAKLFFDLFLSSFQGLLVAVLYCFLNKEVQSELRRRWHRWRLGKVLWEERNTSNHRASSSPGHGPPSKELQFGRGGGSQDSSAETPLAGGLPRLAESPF
Procedure, shortened: as §1

hGLP-1R = hGLP-1R (Homo sapiens, UniProt P43220); test: Functional cAMP formation (HTRF) in HEK-293 clonal cells expressing hGLP-1R, 0.1% bovine casein, without or with 1.0% human serum albumin; set-up: expressed in transfected cells; conditions: 37° C.; for Emax: HEK293, cAMP, 0.1% bovine casein, percent of maximal response to GLP-1(7-36)NH2, arithmetic mean, read-out: hGLP-1R Emax, % ± SEM; for EC50: cAMP, 0.1% bovine casein (no human serum albumin), geometric mean, read-out: hGLP-1R EC50, nM (SEM, n)
Sequence of hGLP-1R (P43220 24-463): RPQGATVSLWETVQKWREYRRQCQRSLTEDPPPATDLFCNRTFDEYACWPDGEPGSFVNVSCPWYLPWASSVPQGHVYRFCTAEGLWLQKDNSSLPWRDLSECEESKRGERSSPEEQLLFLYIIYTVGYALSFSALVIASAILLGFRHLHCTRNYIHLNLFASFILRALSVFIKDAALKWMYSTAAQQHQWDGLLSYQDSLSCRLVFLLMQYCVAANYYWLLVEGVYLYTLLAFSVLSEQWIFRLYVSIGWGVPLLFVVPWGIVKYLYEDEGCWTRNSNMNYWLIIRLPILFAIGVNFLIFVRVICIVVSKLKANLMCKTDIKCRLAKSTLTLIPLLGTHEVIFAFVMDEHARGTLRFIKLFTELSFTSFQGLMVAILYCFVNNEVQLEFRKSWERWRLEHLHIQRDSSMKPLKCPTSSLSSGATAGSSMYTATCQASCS
Procedure, shortened: as §1

Row | SMILES | Emax (hGIPR; HEK293, cAMP, 0.1% bovine casein, percent of maximal response to GIP(1-42)NH2, arithmetic mean, read-out: hGIPR Emax, % ± SEM) [%] | EC50 (hGIPR) [nM] | EC50 (hGCGR) [nM] | Emax (hGLP-1R) [%] | EC50 (hGLP-1R) [nM]
1 | CC[C@H](C)[C@H](NC(=O)[C@H](CCCN)NC(=O)[C@H](CC(=O)O)NC(=O)[C@H](CC(C)C)NC(=O)[C@](C)(CC(C)C)NC(=O)[C@@H](NC(=O)C(C)(C)NC(=O)[C@H](Cc1ccc(O)cc1)NC(=O)[C@H](CC(=O)O)NC(=O)[C@H](CO)NC(=O)[C@@H](NC(=O)[C@](C)(Cc1ccccc1F)NC(=O)[C@@H](NC(=O)CNC(=O)[C@H](CCC(=O)O)NC(=O)C(C)(C)NC(=O)[C@@H](N)Cc1ccc(O)cc1)[C@@H](C)O)[C@@H](C)O)[C@@H](C)CC)C(=O)N[C@@H](C)C(=O)N[C@@H](CCC(N)=O)C(=O)NC(C)(C)C(=O)N[C@@H](CCCCNC(=O)COCCOCCNC(=O)CC[C@H](NC(=O)CCCCCCCCCCCCC(=O)O)C(=O)O)C(=O)N[C@@H](Cc1ccccc1)C(=O)N[C@H](C(=O)N[C@H](CCC(=O)O)C(=O)N[C@@](C)(Cc1ccc(O)cc1)C(=O)N[C@@H](CC(C)C)C(=O)N[C@H](C(=O)N[C@@H](CCCCNC(=O)COCCOCCNC(=O)CC[C@H](NC(=O)CCCCCCCCCCCCC(=O)O)C(=O)O)C(=O)NCC(=O)NCC(=O)N1CCC[C@H]1C(=O)N[C@@H](CO)C(=O)N[C@@H](CO)C(=O)NCC(=O)N[C@@H](C)C(=O)N1CCC[C@H]1C(=O)N1CCC[C@H]1C(=O)N1CCC[C@H]1C(=O)N[C@@H](CO)C(N)=O)[C@@H](C)CC)[C@@H](C)CC [Example 370] (H-Y[Aib]EGT[αMePhe(2-F)]TSDY[Aib]I[αMeL]LD[Orn]IAQ[Aib]K([AEEA-γGlu-C14 diacid])FI[dE][αMeY]LIK([AEEA-γGlu-C14 diacid])GGPSSGAPPPS-NH2) | 105 | 0.0282 | > 9950 | 112 | 0.402
2 | CC[C@H](C)[C@H](NC(=O)[C@H](CCCN)NC(=O)[C@H](CC(=O)O)NC(=O)[C@H](CC(C)C)NC(=O)[C@](C)(CC(C)C)NC(=O)[C@@H](NC(=O)C(C)(C)NC(=O)[C@H](Cc1ccc(O)cc1)NC(=O)[C@H](CC(=O)O)NC(=O)[C@H](CO)NC(=O)[C@@H](NC(=O)[C@](C)(Cc1ccccc1F)NC(=O)[C@@H](NC(=O)CNC(=O)[C@H](CCC(=O)O)NC(=O)C(C)(C)NC(=O)[C@@H](N)Cc1ccc(O)cc1)[C@@H](C)O)[C@@H](C)O)[C@@H](C)CC)C(=O)N[C@@H](C)C(=O)N[C@@H](CCC(N)=O)C(=O)NC(C)(C)C(=O)N[C@@H](CCCCNC(=O)COCCOCCNC(=O)CC[C@H](NC(=O)CCCCCCCCCCCCC(=O)O)C(=O)O)C(=O)N[C@@H](Cc1ccccc1)C(=O)N[C@H](C(=O)N[C@H](CCC(=O)O)C(=O)N[C@@](C)(Cc1ccc(O)cc1)C(=O)N[C@@H](CC(C)C)C(=O)N[C@H](C(=O)N[C@@H](CCC(=O)O)C(=O)NCC(=O)NCC(=O)N1CCC[C@H]1C(=O)N[C@@H](CO)C(=O)N[C@@H](CO)C(=O)NCC(=O)N[C@@H](C)C(=O)N1CCC[C@H]1C(=O)N1CCC[C@H]1C(=O)N1CCC[C@H]1C(=O)N[C@@H](CO)C(=O)N[C@@H](CCCCNC(=O)COCCOCCNC(=O)CC[C@H](NC(=O)CCCCCCCCCCCCC(=O)O)C(=O)O)C(N)=O)[C@@H](C)CC)[C@@H](C)CC [Example 371] (H-Y[Aib]EGT[αMePhe(2-F)]TSDY[Aib]I[αMeL]LD[Orn]IAQ[Aib]K([AEEA-γGlu-C14 diacid])FI[dE][αMeY]LIEGGPSSGAPPPSK([AEEA-γGlu-C14 diacid])-NH2) |  | 0.0209 | > 9950 | 112 | 0.363
